Patent US7807368B2, “Cyclin-dependent kinase inhibitors as targets for opiod growth factor treatment” (priority 2006, dated 2010)

Experiments:
p16 = experiment: Western blot of p16 in CAL-27 cells; format: cell-based, human; conditions: synchronized CAL-27 cells, 9 h
Protocol: The SCC-1 (UM-SCC-1) cell line was obtained from the University of Michigan Cancer Research Laboratory, and CAL-27 and SCC-4 cells were obtained from the American Type Culture Collection (Manassas, Va.). SCC-1 and CAL-27 cells were cultured in DMEM media, whereas SCC-4 cells were grown in 1:1 Hams F-12 DMEM media. All media was supplemented with 10% fetal bovine serum (HyClone, Logan, Utah), 1.2% sodium bicarbonate, and 5000 units/ml penicillin, 5 μg/ml streptomycin and 10 μg/ml neomycin. OGF was purchased from Sigma-Aldrich (St. Louis, Mo.), dissolved in sterile water, and used at a final concentration of 10^−6 M.
Synchronized cells (˜2×10^6) from each treatment were solubilized in 200 μl RIPA buffer (1×PBS, 10 μM IGEPAL, 1 mg/ml SDS, 5 mg/ml deoxycholic acid), containing protease and phosphatase inhibitors (2 μg/ml aprotinin, 3 mg/ml phenylmethyl sulfonyl fluoride (PMSF), 1 mM sodium orthovanidate, 1 μM okadaic acid). Total protein concentrations were measured using the DC protein assay kit (Bio-Rad Laboratories, Hercules, Calif.). Equal amounts of protein (40 μg) were subjected to 10% SDS-PAGE followed by transfer of proteins onto polyvinylidene difluoride (Millipore, Billerica, Mass.) using standard protocols. […]

[1] = tested on: BxPC-3 human pancreatic cancer cells; experiment: Growth curves of BxPC-3 cells; format: cell-based; conditions: 10^-6 M OGF
Protocol: (§1) Human pancreatic cancer cell lines BxPC-3, PANC-1, and Capan-2 were obtained from the American Type Culture Collection (Manassas, Va.), and cultured in RPMI, Dulbecco's Modified Medium, or McCoy's 5A medium, respectively. All media were supplemented with 10% fetal bovine serum, 1.2% sodium bicarbonate, and 0.25% antibiotics (5000 units/ml penicillin, 5 μg/ml streptomycin and 10 μg/ml neomycin). OGF was purchased from Sigma-Aldrich (St. Louis, Mo.), dissolved in sterile water, and used at a final concentration of 10^−6 M.
For growth curves, cells were seeded in 6-well plates at an initial density of 2×10^5 cells/well. Fresh media and OGF were added 24 hours after initial seeding, and media and OGF were replaced daily. At appropriate times, the cells were washed with PBS, trypsinized, and viable cell numbers were counted by trypan blue exclusion using a hemacytometer.

BxPC-3 cells = experiment: Flow cytometry cell cycle distribution, synchronized BxPC-3 cells; format: cell-based, human; conditions: 10^-6 M OGF, 21 hours
Protocol: For flow cytometry, cells were synchronized with 67 ng/ml nocodazole (Sigma-Aldrich) for 24 hours, followed by three washes with complete media. Cells were released from growth arrest by addition of complete media or OGF supplemented complete media. Synchronized cells were treated with 10^-6 M OGF for 21 hours, harvested with 0.25% trypsin-EDTA (Mediatech, Herndon, Va.) and fixed with 70% ethanol at −20° C. for up to 7 days before DNA analysis.
DNA content was obtained by incubating cells in PBS containing propidium iodide (0.1 mg/ml) and RNase A (0.02 mg/ml) for 15 minutes at 220 C. Fluorescence was measured and analyzed using a BD Biosciences FACScan flow cytometer (San Diego, Calif.) and Modfit Software (Topsham, Me.).

p21 = experiment: Western blot of p21 in Capan-2 cells; format: cell-based, human; conditions: 3 hours
Protocol: as §1
Synchronized cells (2×10^6) from each treatment were solubilized in 200 μl RIPA buffer (1×PBS, 10 μM IGEPAL, 1 mg/ml SDS, 5 mg/ml deoxycholic acid), containing protease and phosphatase inhibitors (2 μg/ml aprotinin, 3 mg/ml phenylmethyl sulfonyl fluoride, 1 mM sodium orthovanidate, 1 μM okadaic acid). Total protein concentrations were measured using the DC protein assay kit (Bio-Rad Laboratories, Hercules, Calif.). Equal amounts of protein (40 μg) were subjected to 10% SDS-PAGE followed by transfer of proteins onto polyvinylidene difluoride (Millipore, Billerica, Mass.) using standard protocols.
The p21-targeted siRNAs were obtained from Santa Cruz Biotechnology, and negative control siRNAs were purchased from Ambion (Ambion, Inc., Austin, Tex.). For transfection, 2×10^5 cells per well were seeded in 6-well plates containing 1 ml of media without antibiotics. […]

[2] = tested on: human umbilical vein endothelial cells (HUVEC); experiment: Growth of HUVEC; format: cell-based
Source text: Another normal cell line, human umbilical vein endothelial cells (HUVEC) has been subjected to OGF exposure. […] At 96 hr, OGF-treated cultures had 45.9% fewer cells than normal cultures.

[Met^5]-enkephalin [OGF]
p16 expression relative to controls (p16): increased p16 expression
cell numbers compared to control cultures ([1]; 48 hours): 66%
cell numbers compared to control cultures ([1]; 72 hours): 55%
mean doubling time ([1]; linear regression of growth data): 51 h
cells in S phase (BxPC-3 cells): 28.0%
cells in the G2/M phase (BxPC-3 cells): 2.9%
percentage of cells in the G0/G1 phase (BxPC-3 cells): 69.1%
p21 expression relative to control cultures (p21): increased p21 expression
cell number relative to control cultures ([2]; 10^-6 M OGF, 48, 72, and 96 hr): significant (p<0.01) reductions
fewer cells than normal cultures ([2]; 10^-6 M OGF, 96 hr): 45.9%
